# In US20190142971A1, “FORMULATION AND DELIVERY OF MODIFIED NUCLEOSIDE, NUCLEOTIDE, AND NUCLEIC ACID COMPOSITIONS” (ModernaTX, Inc., priority 2013, published 2019):
# Columns and labels:
# Type in all cases: in vivo
# [1] = test system: Sprague-Dawley rats; experiment: Example 34: EPO mRNA in buffer IM in rats, serum EPO (Table 59); settings: dose 100 μg, 13 hours post injection
# [2] = test system: mice; experiment: Example 42A: G-CSF/EPO mRNA in buffer IM in mice, serum protein at 13 hours (Table 67); settings: IM 100 ug
# Protocol: The mice were bled at 13 hours after the injection to determine the concentration of the human polypeptide in serum in pg/mL (G-CSF groups measured human G-CSF in mouse serum and EPO groups measured human EPO in mouse serum).
# [3] = test system: mice; experiment: Example 65: G-CSF/EPO mRNA in saline in mice, serum protein at 13 hours (Table 97); settings: 100 ug, 100 μl/mouse, F. buffer, 13 hours after injection
# Protocol: The mice were bled at 13 hours after the injection to determine the concentration of the human polypeptide in serum in pg/mL. (G-CSF groups measured human G-CSF in mouse serum and EPO groups measured human EPO in mouse serum).
substance,measurement,setting,value
"Luciferase: luciferase mRNA, SEQ ID NO: 14, Cap1, fully modified with 5-methylcytosine and pseudouridine","human EPO in serum, Avg.",[1],24.5 pg/mL
same,"human EPO in serum, Geometric-mean",[1],22.4 pg/mL
same,"Average Protein Product, serum",[2]; EPO group: human EPO in mouse serum,15.0 pg/mL
same,"Average Protein Product, serum",[2]; G-CSF group: human G-CSF in mouse serum,0.5 pg/mL
same,"Average Protein Product, serum (human EPO)",[3]; EPO group,26.7 pg/mL
same,"Average Protein Product, serum (human G-CSF)",[3]; G-CSF group,0 pg/mL
